Test results published in ChEMBL document CHEMBL3244035, “Synthesis and hypoglycemic activity of 4-substituted 3-mercaptopicolinic acids” (J Med Chem, 1977).
Calls of active or inactive are those of the source. The rule behind the calls is not given here.

System: Rattus norvegicus
Test: Hypoglycemic activity in 48 hrs fasted rat assessed as reduction in blood glucose at 150 mg/kg, po measured 1 to 4 hrs post challenge
Assay type: functional, organism-based
Set-up: dose 150 mg/kg

| SMILES | Activity |
| --- | --- |
| O=C(O)c1nccc(S)c1S | inactive |
| CCc1ccnc(C(=O)O)c1S | inactive |
| Nc1ccnc(C(=O)O)c1S | inactive |
| CSc1ccnc(C(=O)O)c1S | inactive |
| O=C(O)c1nccc(Cl)c1S | inactive |
| O=C(O)c1nccc(Oc2ccccc2)c1S | inactive |
| COc1ccnc(C(=O)O)c1S | inactive |
